Assay results reported in patent publication US20130143929A1, “FUNGICIDAL IMIDAZOLES” (EI DU PONT DE NEMOURS AND COMPANY, priority 2010, published 2013).
Marks after values point to notes of the source that are not given here.

Tests used:
Type in all cases: in vivo
[1] = tested on: Blumeria graminis f. sp. tritici (also known as Erysiphe graminis f. sp. tritici, the causal agent of wheat powdery mildew); test: Test D: wheat powdery mildew, preventive spray on wheat seedlings, visual disease rating; conditions: for Test D rating (100 = 100% disease control, 0 = no disease control relative to the controls): wheat powdery mildew, preventive spray on wheat seedlings; for Test D rating (% disease control, wheat powdery mildew): no asterisk: standard test suspension concentration, 100 = 100% disease control, 0 = no control relative to controls
In short: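 Compound suspended in acetone/water (50/50) with 250 ppm Trem 014 and sprayed to run-off on wheat seedlings (200 ppm ≈ 800 g/ha), then inoculated next day with spore dust. Disease rated visually after 8 days at 20 °C as % control relative to untreated plants (0-100).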

[2] = tested on: Botrytis cinerea (the causal agent of tomato Botrytis); test: Test C: tomato Botrytis, preventive spray on tomato seedlings, visual disease rating; conditions: for Test C rating (100 = 100% disease control, 0 = no disease control relative to the controls): tomato Botrytis, preventive spray on tomato seedlings; for Test C rating (% disease control, tomato Botrytis): no asterisk: standard test suspension concentration, 100 = 100% disease control, 0 = no control relative to controls
In short: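 Test suspension (acetone/water with 250 ppm Trem 014; 200 ppm equivalent to 800 g/ha) sprayed to run-off on tomato seedlings; B. cinerea spores inoculated next day. After 48 h saturated humidity at 20° C then 3 days at 24° C, disease rated visually as % control relative to untreated controls (0–100).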

[3] = tested on: Septoria tritici (the causal agent of wheat leaf blotch); test: Test B: wheat leaf blotch, preventive spray on wheat seedlings, visual disease rating; conditions: for Test B rating (100 = 100% disease control, 0 = no disease control relative to the controls): wheat leaf blotch, preventive spray on wheat seedlings; for Test B rating (% disease control, wheat leaf blotch): no asterisk: standard test suspension concentration, 100 = 100% disease control, 0 = no control relative to controls
In short: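 Wheat seedlings sprayed to run-off with compound suspension (acetone/water with 250 ppm Trem 014; 200 ppm ≈ 800 g/ha, some at 40 ppm), inoculated next day with Septoria tritici spores. 48 h saturated humidity at 24 °C, then 19 days at 20 °C; visual rating, 100 = full control.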

[4] = tested on: Puccinia recondite f. sp. tritici (the causal agent of wheat leaf rust); test: Test A: wheat leaf rust, preventive spray on wheat seedlings, visual disease rating; conditions: for Test A rating (100 = 100% disease control, 0 = no disease control relative to the controls): wheat leaf rust, preventive spray on wheat seedlings; for Test A rating (% disease control, wheat leaf rust): no asterisk: standard test suspension concentration, 100 = 100% disease control, 0 = no control relative to controls
In short: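 Wheat seedlings were sprayed to run-off with compound suspended in acetone/water containing 250 ppm Trem 014 (200 ppm ≈ 800 g/ha; some at 40 ppm). Puccinia recondite spores were inoculated the next day. Plants were held 24 h saturated at 20° C, then 7 days at 20° C, and disease control was rated visually on a 0–100 scale against controls.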

[5] = asterisk: 40 ppm test suspension
[6] = no asterisk (standard test suspension concentration, not 40 ppm)

Row | SMILES | Test D rating (100 = 100% disease control, 0 = no disease control relative to the controls) [1, 5] | Test C rating (100 = 100% disease control, 0 = no disease control relative to the controls) [2, 5] | Test B rating (100 = 100% disease control, 0 = no disease control relative to the controls) [3, 5] | Test A rating (100 = 100% disease control, 0 = no disease control relative to the controls) [4, 5] | other results
1 | Cc1nc(C)n(-c2c(F)cc(F)cc2Cl)c1C(O)c1ccc(F)cc1F (racemic) [compound 245] | 84* % | 91* % | 100* % | 100* % | 
2 | OC(c1ccc(F)cc1Cl)c1c(Br)nc(Br)n1-c1ccc(F)cc1Cl (racemic) [compound 233] | 72* % | 95* % | 100* % | 100* % | 
3 | Cc1nc(Br)c(C(O)c2c(F)cccc2F)n1-c1ccc(F)cc1Cl (stereo not shown) [compound 140] |  |  |  |  | Test D rating (100 = 100% disease control, 0 = no disease control relative to the controls) [1, 6]: 50%; Test C rating (100 = 100% disease control, 0 = no disease control relative to the controls) [2, 6]: 100%; Test B rating (100 = 100% disease control, 0 = no disease control relative to the controls) [3, 6]: 100%; Test A rating (100 = 100% disease control, 0 = no disease control relative to the controls) [4, 6]: 100%
4 | Cc1nc(Br)c(C(O)c2ccc(F)cc2)n1-c1c(F)cccc1F (stereo not shown) [compound 133] | 64* % | 100* % | 100* % | 100* % | 
5 | COc1ccc(C(O)c2c(Cl)nc(C)n2-c2c(F)cccc2F)c(F)c1 (stereo not shown) [compound 56] | 13* % | 100* % | 100* % | 100* % | 
6 | OC(c1ccc(F)cc1Cl)c1c(Cl)nc(Cl)n1-c1c(F)cc(F)cc1Cl (stereo not shown) [compound 42] |  |  |  |  | Test D rating (100 = 100% disease control, 0 = no disease control relative to the controls) [1, 6]: 100%; Test C rating (100 = 100% disease control, 0 = no disease control relative to the controls) [2, 6]: 100%; Test B rating (100 = 100% disease control, 0 = no disease control relative to the controls) [3, 6]: 100%; Test A rating (100 = 100% disease control, 0 = no disease control relative to the controls) [4, 6]: 100%
7 | Cc1nc(Cl)n(-c2c(F)cccc2F)c1C(O)c1c(F)ccc(Br)c1F (racemic) [compound 25] | 0* % | 87* % | 100* % | 99* % | 
8 | Cc1ncc(C(O)c2ccc(F)cc2F)n1-c1c(F)cccc1Br (stereo not shown) [compound 409] |  |  |  |  | Test D rating (% disease control, wheat powdery mildew) [1]: 0%; Test C rating (% disease control, tomato Botrytis) [2]: 57%; Test B rating (% disease control, wheat leaf blotch) [3]: 100%; Test A rating (% disease control, wheat leaf rust) [4]: 99%
9 | COc1ccc(C(O)c2c(Br)nc(C)n2-c2c(F)cccc2Cl)c(Cl)c1 (racemic) [compound 276] | 100* % | 100* % | 100* % | 100* % | 
10 | Cc1ncc(C(O)c2ccc(F)cc2Br)n1-c1ccc(F)cc1Cl (racemic) [compound 251] |  |  |  |  | Test D rating (100 = 100% disease control, 0 = no disease control relative to the controls) [1, 6]: 0%; Test C rating (100 = 100% disease control, 0 = no disease control relative to the controls) [2, 6]: 98%; Test B rating (100 = 100% disease control, 0 = no disease control relative to the controls) [3, 6]: 93%; Test A rating (100 = 100% disease control, 0 = no disease control relative to the controls) [4, 6]: 100%
11 | COc1ccc(C(O)c2c(C)nc(Cl)n2-c2c(F)cccc2Br)c(F)c1 (stereo not shown) [compound 211] | 98* % | 100* % | 100* % | 100* % | 
12 | Cc1ncc(C(O)c2ccc(Cl)cc2Cl)n1-c1c(F)cc(F)cc1Cl (stereo not shown) [compound 371] |  |  |  |  | Test D rating (100 = 100% disease control, 0 = no disease control relative to the controls) [1, 6]: 0%; Test C rating (100 = 100% disease control, 0 = no disease control relative to the controls) [2, 6]: 58%; Test B rating (100 = 100% disease control, 0 = no disease control relative to the controls) [3, 6]: 100%; Test A rating (100 = 100% disease control, 0 = no disease control relative to the controls) [4, 6]: 95%
13 | OC(c1ccc(F)cc1F)c1c(Br)nc(Br)n1-c1c(F)cc(Cl)cc1F (stereo not shown) [compound 123] | 0* % | 95* % | 100* % | 98* % | 
14 | COc1cc(F)c(C(O)c2c(Cl)ncn2-c2ccc(F)cc2Cl)c(F)c1 (racemic) [compound 234] | 43* % | 26* % | 79* % | 99* % | 
15 | COc1ccc(-n2c(Cl)nc(Cl)c2C(O)c2ccc(F)cc2Cl)c(F)c1 (stereo not shown) [compound 319] | 0* % | 99* % | 100* % | 100* % | 
16 | Cc1nc(Br)c(C(O)c2ccc(F)cc2F)n1-c1ccc(F)cc1F (stereo not shown) [compound 382] |  |  |  |  | Test D rating (% disease control, wheat powdery mildew) [1]: 0%; Test C rating (% disease control, tomato Botrytis) [2]: 99%; Test B rating (% disease control, wheat leaf blotch) [3]: 100%; Test A rating (% disease control, wheat leaf rust) [4]: 100%
17 | Cc1nc(Cl)c(C(O)c2ccc(F)cc2Br)n1-c1ccc(F)cc1F (stereo not shown) [compound 313] | 0* % | 17* % | 100* % | 100* % | 
18 | Cc1nc(Cl)n(-c2c(F)cccc2Cl)c1C(O)c1ccc(F)cc1F (stereo not shown) [compound 332] | 92* % | 99* % | 100* % | 100* % | 
19 | Cc1nc(Br)c(C(O)c2ccc(Cl)cc2)n1-c1ccc(F)cc1F (stereo not shown) [compound 380] |  |  |  |  | Test D rating (% disease control, wheat powdery mildew) [1]: 0%; Test C rating (% disease control, tomato Botrytis) [2]: 100%; Test B rating (% disease control, wheat leaf blotch) [3]: 100%; Test A rating (% disease control, wheat leaf rust) [4]: 98%
20 | Cc1ncc(C(O)c2ccc(F)cc2Cl)n1-c1ccc(F)cc1Cl (stereo not shown) [compound 171] |  |  |  |  | Test D rating (100 = 100% disease control, 0 = no disease control relative to the controls) [1, 6]: 0%; Test C rating (100 = 100% disease control, 0 = no disease control relative to the controls) [2, 6]: 95%; Test B rating (100 = 100% disease control, 0 = no disease control relative to the controls) [3, 6]: 100%; Test A rating (100 = 100% disease control, 0 = no disease control relative to the controls) [4, 6]: 100%
21 | Cc1nc(Br)c(C(O)c2ccc(F)cc2F)n1-c1c(F)cccc1Br (stereo not shown) [compound 393] |  |  |  |  | Test D rating (% disease control, wheat powdery mildew) [1]: 97%; Test C rating (% disease control, tomato Botrytis) [2]: 100%; Test B rating (% disease control, wheat leaf blotch) [3]: 100%; Test A rating (% disease control, wheat leaf rust) [4]: 100%
22 | OC(c1ccc(F)cc1Br)c1c(Cl)nc(C2CC2)n1-c1c(F)cccc1Br (stereo not shown) [compound 72] |  |  |  |  | Test D rating (100 = 100% disease control, 0 = no disease control relative to the controls) [1, 6]: 43%; Test C rating (100 = 100% disease control, 0 = no disease control relative to the controls) [2, 6]: 0%; Test B rating (100 = 100% disease control, 0 = no disease control relative to the controls) [3, 6]: 100%; Test A rating (100 = 100% disease control, 0 = no disease control relative to the controls) [4, 6]: 79%
23 | Cc1cc(F)ccc1C(O)c1c(Cl)nc(Cl)n1-c1ccc(F)cc1Cl (single isomer, unassigned) [compound 51] |  |  |  |  | Test D rating (100 = 100% disease control, 0 = no disease control relative to the controls) [1, 6]: 47%; Test C rating (100 = 100% disease control, 0 = no disease control relative to the controls) [2, 6]: 99%; Test B rating (100 = 100% disease control, 0 = no disease control relative to the controls) [3, 6]: 100%; Test A rating (100 = 100% disease control, 0 = no disease control relative to the controls) [4, 6]: 100%
24 | Cc1nc(Cl)n(-c2c(F)cccc2F)c1C(O)c1ccc(F)cc1F (racemic) [compound 26] | 99* % | 100* % | 100* % | 100* % | 
25 | Cc1cccc(Cl)c1-n1c(C)nc(Cl)c1C(O)c1ccc(F)cc1F (stereo not shown) [compound 320] | 79* % | 96* % | 100* % | 99* % | 
